Results: ChEMBL document CHEMBL5465560, “Selectivity Literature for EUbOPEN Chemogenomic Library” (2024)

Assays:
[1] = system: Tyrosine-protein kinase ABL1 (Homo sapiens), P00519 [F317L]; conditions: at 10 µM
[2] = target: T1, Protein kinase C iota type (Homo sapiens) (UniProt P41743); conditions: at 10 µM
T1 sequence (whole entry): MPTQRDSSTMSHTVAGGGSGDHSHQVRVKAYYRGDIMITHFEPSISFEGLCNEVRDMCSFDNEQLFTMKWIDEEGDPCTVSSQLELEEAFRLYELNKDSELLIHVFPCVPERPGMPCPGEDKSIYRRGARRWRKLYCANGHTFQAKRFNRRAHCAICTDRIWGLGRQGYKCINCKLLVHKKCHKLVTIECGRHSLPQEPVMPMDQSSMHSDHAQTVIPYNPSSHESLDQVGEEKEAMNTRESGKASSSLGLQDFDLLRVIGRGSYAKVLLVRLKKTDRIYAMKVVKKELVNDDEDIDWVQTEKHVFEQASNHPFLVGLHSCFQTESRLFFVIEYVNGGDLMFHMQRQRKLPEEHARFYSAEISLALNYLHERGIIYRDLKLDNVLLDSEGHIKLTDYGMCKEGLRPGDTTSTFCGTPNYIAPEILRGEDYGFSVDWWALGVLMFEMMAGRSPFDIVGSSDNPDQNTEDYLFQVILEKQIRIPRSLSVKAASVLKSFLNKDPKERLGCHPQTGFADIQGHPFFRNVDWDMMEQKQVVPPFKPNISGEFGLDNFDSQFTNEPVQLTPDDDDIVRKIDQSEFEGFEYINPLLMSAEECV

[3] = target: Serine/threonine-protein kinase SBK1 (Homo sapiens) (UniProt Q52WX2); experiment: Selectivity interaction (KinomeScan (DiscoverX)) EUB0001049a SBK1; conditions: at 1 µM
Chain of Serine/threonine-protein kinase SBK1 (Homo sapiens) (Q52WX2 whole entry): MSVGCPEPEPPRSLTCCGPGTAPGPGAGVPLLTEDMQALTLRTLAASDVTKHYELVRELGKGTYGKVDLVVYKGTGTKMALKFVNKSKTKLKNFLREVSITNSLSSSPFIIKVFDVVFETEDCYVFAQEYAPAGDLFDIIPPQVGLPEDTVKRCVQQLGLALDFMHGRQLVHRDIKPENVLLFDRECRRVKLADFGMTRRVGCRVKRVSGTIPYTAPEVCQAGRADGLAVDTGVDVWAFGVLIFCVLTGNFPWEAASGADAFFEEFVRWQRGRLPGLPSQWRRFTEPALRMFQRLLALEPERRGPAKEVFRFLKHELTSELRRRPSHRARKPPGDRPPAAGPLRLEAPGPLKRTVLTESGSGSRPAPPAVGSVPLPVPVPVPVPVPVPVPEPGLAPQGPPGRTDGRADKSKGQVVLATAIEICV

[4] = target: Serine/threonine-protein kinase VRK2 (Homo sapiens) (UniProt Q86Y07); experiment: Selectivity interaction (KinomeScan (DiscoverX)) EUB0001049a VRK2; conditions: at 1 µM
Chain of Serine/threonine-protein kinase VRK2 (Homo sapiens) (Q86Y07 whole entry): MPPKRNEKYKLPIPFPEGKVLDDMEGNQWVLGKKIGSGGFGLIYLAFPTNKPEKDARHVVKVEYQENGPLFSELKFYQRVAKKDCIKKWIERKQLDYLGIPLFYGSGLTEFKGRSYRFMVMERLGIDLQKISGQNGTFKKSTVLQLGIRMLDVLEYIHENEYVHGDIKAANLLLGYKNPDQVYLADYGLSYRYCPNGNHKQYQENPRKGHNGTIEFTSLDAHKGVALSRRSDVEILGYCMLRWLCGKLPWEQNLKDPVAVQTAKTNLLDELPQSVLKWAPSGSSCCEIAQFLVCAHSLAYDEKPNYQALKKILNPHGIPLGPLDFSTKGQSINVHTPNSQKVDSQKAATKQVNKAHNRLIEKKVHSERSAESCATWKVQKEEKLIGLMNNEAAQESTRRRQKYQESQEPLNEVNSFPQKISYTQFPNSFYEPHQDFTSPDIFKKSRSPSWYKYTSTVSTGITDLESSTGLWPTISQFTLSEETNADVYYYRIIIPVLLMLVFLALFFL

[5] = target: Ribosomal protein S6 kinase beta-1 (Homo sapiens, UniProt P23443); experiment: Selectivity interaction (ActivX KiNativ screen (kinase selectivity in THP-1 cell lysates)) EUB0000639a RPS6KB1; format: subcellular; conditions: lysate, at 1 µM
Chain of Ribosomal protein S6 kinase beta-1 (P23443 whole entry, looked up): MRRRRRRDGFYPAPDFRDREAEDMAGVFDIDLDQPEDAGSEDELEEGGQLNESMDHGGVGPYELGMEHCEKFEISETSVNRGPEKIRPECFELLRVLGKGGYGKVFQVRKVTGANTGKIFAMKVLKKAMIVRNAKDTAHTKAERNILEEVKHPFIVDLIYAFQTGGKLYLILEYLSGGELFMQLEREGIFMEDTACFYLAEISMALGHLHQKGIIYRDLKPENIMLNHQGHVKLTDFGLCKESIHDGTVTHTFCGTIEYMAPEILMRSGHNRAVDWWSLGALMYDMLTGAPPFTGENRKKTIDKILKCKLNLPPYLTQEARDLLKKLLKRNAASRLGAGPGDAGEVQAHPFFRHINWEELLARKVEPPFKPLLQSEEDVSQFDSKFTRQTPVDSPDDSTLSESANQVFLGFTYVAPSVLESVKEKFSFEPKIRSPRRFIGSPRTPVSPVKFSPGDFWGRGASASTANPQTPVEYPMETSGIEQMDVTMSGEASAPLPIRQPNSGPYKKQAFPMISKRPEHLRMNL

[6] = target: Protein-tyrosine kinase 2-beta (Homo sapiens) (UniProt Q14289); experiment: Selectivity interaction (ActivX KiNativ screen (kinase selectivity in THP-1 cell lysates)) EUB0000639a PTK2B; format: subcellular; conditions: lysate, at 0.2 µM
Chain of Protein-tyrosine kinase 2-beta (Homo sapiens) (Q14289 whole entry, looked up): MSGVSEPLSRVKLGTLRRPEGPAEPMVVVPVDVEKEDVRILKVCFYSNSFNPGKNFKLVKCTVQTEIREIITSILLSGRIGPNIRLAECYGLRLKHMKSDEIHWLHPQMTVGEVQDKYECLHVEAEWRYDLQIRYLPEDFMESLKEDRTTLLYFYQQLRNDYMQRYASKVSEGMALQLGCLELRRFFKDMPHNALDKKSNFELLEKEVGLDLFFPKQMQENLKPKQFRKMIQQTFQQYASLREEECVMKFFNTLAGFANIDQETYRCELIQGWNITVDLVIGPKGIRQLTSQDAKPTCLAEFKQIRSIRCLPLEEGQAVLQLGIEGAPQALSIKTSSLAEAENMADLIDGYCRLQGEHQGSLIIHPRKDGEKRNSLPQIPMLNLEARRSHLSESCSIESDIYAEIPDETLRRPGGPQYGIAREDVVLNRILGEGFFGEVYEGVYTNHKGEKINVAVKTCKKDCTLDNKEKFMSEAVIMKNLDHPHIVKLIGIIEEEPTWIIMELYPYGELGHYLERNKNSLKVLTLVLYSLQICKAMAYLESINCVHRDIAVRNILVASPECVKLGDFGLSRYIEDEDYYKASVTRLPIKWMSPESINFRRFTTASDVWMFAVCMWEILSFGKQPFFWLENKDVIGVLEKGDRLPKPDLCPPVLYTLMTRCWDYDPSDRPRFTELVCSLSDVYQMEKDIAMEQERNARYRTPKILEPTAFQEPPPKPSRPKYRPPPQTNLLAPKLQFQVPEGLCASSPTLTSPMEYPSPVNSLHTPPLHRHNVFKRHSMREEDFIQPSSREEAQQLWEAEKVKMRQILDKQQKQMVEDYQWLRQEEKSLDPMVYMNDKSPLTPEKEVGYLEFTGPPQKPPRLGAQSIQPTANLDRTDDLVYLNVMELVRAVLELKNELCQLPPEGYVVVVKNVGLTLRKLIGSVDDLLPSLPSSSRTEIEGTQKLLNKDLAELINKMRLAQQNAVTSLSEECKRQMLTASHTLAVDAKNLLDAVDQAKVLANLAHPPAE

[7] = target: T2, Protein kinase C epsilon type (Homo sapiens) (UniProt Q02156); experiment: Selectivity interaction (KinomeScan (DiscoverX)) EUB0000695a PRKCE; conditions: at 100 nM
T2 sequence (whole entry): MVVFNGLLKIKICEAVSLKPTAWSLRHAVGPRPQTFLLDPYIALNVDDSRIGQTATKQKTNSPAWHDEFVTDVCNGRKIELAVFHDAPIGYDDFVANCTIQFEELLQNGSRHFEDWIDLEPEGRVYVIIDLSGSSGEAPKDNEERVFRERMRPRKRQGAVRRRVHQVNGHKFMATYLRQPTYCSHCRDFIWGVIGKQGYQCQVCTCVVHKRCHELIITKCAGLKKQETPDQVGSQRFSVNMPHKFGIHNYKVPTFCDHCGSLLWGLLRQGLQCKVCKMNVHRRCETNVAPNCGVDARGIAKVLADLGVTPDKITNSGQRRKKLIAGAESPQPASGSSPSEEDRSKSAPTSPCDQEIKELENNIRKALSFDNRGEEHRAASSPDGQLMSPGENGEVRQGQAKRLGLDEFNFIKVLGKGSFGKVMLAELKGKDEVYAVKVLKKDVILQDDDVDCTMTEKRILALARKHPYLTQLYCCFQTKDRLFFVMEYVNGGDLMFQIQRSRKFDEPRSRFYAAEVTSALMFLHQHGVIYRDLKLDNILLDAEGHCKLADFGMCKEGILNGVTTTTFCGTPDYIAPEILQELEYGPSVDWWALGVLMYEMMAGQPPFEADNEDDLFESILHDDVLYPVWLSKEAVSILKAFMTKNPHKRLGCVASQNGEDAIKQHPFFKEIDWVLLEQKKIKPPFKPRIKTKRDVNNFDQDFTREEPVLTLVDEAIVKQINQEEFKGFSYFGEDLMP

[8] = target: Cyclin-dependent kinase 16 (Homo sapiens) (UniProt Q00536); experiment: Selectivity interaction (KinomeScan (DiscoverX)) EUB0000045b CDK16
Chain of Cyclin-dependent kinase 16 (Homo sapiens) (Q00536 whole entry): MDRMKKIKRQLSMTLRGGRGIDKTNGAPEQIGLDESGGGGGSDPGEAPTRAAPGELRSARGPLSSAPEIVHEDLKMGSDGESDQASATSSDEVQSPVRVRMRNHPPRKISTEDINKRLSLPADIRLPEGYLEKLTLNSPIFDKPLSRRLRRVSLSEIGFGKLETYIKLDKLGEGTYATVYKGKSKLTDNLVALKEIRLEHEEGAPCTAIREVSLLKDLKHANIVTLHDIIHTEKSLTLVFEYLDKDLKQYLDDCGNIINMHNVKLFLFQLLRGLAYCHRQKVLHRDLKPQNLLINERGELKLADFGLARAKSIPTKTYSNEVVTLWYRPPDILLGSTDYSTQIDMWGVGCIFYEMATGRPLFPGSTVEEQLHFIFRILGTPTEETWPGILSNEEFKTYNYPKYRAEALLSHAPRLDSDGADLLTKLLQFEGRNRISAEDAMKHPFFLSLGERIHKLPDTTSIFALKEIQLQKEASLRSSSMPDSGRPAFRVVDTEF

[9] = target: T3, Dual specificity mitogen-activated protein kinase kinase 3 (Homo sapiens) (UniProt P46734); experiment: Selectivity interaction (ActivX KiNativ screen (ex vivo kinase selectivity in human PBMCs)) EUB0001619a MAP2K3; format: cell-based; conditions: PBMC, at 1 µM
T3 sequence (whole entry): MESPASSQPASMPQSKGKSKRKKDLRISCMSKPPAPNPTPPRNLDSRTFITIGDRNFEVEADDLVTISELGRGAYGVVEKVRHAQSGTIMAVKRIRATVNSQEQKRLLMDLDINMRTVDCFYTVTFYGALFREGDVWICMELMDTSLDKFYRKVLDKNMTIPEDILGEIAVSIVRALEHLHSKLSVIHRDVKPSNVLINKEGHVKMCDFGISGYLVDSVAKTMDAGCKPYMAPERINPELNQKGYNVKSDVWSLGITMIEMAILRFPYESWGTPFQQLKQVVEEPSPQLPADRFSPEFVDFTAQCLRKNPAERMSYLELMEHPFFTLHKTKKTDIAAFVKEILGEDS

[10] = target: Tyrosine-protein kinase BTK (Homo sapiens, UniProt Q06187); experiment: Selectivity interaction (ActivX KiNativ screen (ex vivo kinase selectivity in human PBMCs)) EUB0001619a BTK; format: cell-based; conditions: PBMC, at 1 µM
Chain of Tyrosine-protein kinase BTK (Q06187 whole entry): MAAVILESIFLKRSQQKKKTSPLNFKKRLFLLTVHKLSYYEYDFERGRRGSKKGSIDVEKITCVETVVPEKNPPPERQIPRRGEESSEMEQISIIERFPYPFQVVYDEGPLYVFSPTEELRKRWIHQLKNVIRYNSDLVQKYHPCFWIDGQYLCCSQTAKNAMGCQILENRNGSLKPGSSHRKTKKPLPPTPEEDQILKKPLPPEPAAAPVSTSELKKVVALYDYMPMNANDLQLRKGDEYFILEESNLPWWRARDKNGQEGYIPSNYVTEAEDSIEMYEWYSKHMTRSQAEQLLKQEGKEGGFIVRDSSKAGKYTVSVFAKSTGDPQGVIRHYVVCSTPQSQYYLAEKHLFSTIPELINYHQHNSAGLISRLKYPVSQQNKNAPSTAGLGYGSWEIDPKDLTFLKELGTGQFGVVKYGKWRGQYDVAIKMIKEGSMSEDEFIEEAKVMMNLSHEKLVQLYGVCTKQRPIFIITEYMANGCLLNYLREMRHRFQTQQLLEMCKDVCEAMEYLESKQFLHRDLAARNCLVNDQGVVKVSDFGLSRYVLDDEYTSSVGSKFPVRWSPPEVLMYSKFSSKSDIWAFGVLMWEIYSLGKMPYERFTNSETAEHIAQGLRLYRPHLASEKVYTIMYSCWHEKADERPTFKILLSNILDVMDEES

[11] = target: T4, Activin receptor type-1B (Homo sapiens) (UniProt P36896); experiment: Selectivity interaction (SelectScreen profiling (Invitrogen)) EUB0000607a ACVR1B; conditions: at 2 µM
T4 sequence (whole entry): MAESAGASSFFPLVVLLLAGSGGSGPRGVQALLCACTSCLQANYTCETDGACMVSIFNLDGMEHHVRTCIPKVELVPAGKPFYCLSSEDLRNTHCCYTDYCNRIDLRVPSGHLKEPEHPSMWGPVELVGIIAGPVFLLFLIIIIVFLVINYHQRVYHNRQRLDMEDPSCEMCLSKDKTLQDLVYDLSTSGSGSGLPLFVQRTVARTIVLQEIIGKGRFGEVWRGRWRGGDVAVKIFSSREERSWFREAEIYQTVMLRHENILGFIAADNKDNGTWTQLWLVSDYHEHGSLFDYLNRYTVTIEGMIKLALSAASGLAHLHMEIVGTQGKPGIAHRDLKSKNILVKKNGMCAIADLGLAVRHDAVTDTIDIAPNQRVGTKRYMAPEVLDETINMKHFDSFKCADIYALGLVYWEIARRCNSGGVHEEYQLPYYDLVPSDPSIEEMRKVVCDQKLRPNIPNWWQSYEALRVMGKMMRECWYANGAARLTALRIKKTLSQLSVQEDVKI

Chain of Tyrosine-protein kinase ABL1 (Homo sapiens), P00519 [F317L] (P00519 whole entry F317L): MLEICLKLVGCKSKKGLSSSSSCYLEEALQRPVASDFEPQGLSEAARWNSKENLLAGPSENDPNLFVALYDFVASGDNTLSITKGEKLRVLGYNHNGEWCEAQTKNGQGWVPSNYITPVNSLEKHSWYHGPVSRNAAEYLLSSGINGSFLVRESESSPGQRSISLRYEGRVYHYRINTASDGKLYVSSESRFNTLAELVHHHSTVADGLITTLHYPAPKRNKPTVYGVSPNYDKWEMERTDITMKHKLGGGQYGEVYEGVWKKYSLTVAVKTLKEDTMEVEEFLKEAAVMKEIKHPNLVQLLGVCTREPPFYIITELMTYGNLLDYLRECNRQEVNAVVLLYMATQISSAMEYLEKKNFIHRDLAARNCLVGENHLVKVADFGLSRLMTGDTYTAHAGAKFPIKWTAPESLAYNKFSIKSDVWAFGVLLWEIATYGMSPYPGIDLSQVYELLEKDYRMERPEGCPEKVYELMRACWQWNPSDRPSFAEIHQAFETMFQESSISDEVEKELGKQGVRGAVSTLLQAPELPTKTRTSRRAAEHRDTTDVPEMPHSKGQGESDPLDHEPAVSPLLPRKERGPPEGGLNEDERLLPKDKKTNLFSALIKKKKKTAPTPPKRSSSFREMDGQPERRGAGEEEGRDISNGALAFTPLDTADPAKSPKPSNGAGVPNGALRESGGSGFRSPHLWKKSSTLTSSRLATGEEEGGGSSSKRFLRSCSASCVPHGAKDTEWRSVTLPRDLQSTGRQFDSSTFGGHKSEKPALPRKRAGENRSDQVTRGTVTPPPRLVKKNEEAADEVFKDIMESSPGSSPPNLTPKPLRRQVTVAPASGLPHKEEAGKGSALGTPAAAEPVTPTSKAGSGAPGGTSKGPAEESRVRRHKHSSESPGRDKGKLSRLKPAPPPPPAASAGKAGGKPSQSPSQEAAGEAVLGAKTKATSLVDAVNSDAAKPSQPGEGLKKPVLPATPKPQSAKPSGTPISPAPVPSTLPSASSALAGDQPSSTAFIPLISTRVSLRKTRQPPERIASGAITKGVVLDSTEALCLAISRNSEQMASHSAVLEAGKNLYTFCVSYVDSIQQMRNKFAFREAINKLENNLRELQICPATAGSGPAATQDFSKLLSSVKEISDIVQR

With `Cc1cc([C@@H](C)Nc2ccccc2C(=O)O)c2nc(N3CCOCC3)cc(=O)n2c1` [AZD-6482] the % of control [1] was 89% and the % of control [2] was 100%.
`COc1cc(Nc2nc(C)cc(-c3cnn4nc(OC)ccc34)n2)cc(C(F)(F)F)c1` gave a % of control [3] of 87% and a % of control [4] of 100%.
Work on `CC[C@@H]1[C@H](F)C(=O)N[C@@H]1COc1nccc2cc(C(N)=O)c(OC)cc12` [ZIMLOVISERTIB] yielded a % of inhibition [5] of -5.5% and a % of inhibition [6] of -18.6%.
For `Cc1cc(F)c(C(=O)Nc2cccc(-c3nncn3C(C)C)n2)cc1-n1cnc(C2CC2)c1`, the % of control [7] was 97%.
In the case of `C=CC(=O)Nc1cc(-n2c(=O)ccc3cnc4ccc(-c5ccc(NS(C)(=O)=O)cc5)cc4c32)ccc1C`, the % of control ([8]; at 1 µM) is reported as 100% and the % of control ([8]; at 10 µM) is reported as 100%.
Work on `N#Cc1cccc(-c2c[nH]c3ncnc(N4CCOCC4)c23)c1` yielded a % of inhibition [9] of 6% and a % of inhibition [10] of 13%.
For `CNC(=O)Nc1ccc(-c2nc(N3CC4CCC(C3)O4)c3cnn(C4CCC5(CC4)OCCO5)c3n2)cc1`, the % of inhibition [11] was 3%.
